Experimental data from patent US8946426B2, “Substituted bicyclic heterocyclic compounds as gamma secretase modulators” (Janssen Pharmaceuticals, Inc., priority 2009, dated 2015).

Columns and labels:
Assay type in all cases: cell-based
Aβ42 [1] = assay: Method 1: Aβ42 sandwich ELISA in supernatant of SKNBE2 cells carrying APP 695-wild type (Tables 7a, 7b)
Outline: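 SKNBE2 cells expressing wild-type APP695 were exposed to compound for 18 hours. Secreted Aβ42 was quantified by sandwich ELISA with C-terminal-selective capture, biotinylated 3D6 detection and TMB read-out at 450 nm. IC50 came from 4-parameter fits of % inhibition or % of untreated control; WST-1 monitored toxicity.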

Aβtotal [2] = assay: Method 1: Aβtotal sandwich ELISA in supernatant of SKNBE2 cells carrying APP 695-wild type (Tables 7a, 7b)
Outline: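 SKNBE2 cells expressing wild-type APP695 were exposed to compound for 18 Hours in Ultraculture with 1% glutamine. Aβtotal in the supernatant was read by 6E10-capture/biotinylated 4G8 sandwich ELISA with a fluorogenic peroxidase read-out, and WST-1 checked toxicity. IC50 came from a 4-parameter fit of percent inhibition or percent of control versus concentration.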

Aβ42 [3] = assay: Method 2: Aβ42 Alphalisa in supernatant of SKNBE2 cells carrying APP 695-wild type (Table 7c); settings: Method 2, Alphalisa, overnight incubation
Description: (§1) Screening was carried out using SKNBE2 cells carrying the APP 695-wild type, grown in Dulbecco's Modified Eagle's Medium/Nutrient mixture F-12 (DMEM/NUT-mix F-12) (HAM) provided by Invitrogen (cat no. 10371-029) containing 5% Serum/Fe supplemented with 1% non-essential amino acids, 1-glutamine 2 mM, Hepes 15 mM, penicillin 50 U/ml (units/ml) en streptomycin 50 μg/ml. Cells were grown to near confluency.
(§2) The screening was performed using a modification of the assay as described in Citron et al (1997) Nature Medicine 3: 67. Briefly, cells were plated in a 384-well plate at 10^4 cells/well in Ultraculture (Lonza, BE12-725F) supplemented with 1% glutamine (Invitrogen, 25030-024), 1% non-essential amino acid (NEAA), penicillin 50 U/ml en streptomycin 50 μg/ml in the presence of test compound at different test concentrations. The cell/compound mixture was incubated overnight at 37° C., 5% CO2. The next day the media were assayed by two sandwich immuno-assays, for Aβ42 and Aβtotal.
(§3) Aβtotal and Aβ42 concentrations were quantified in the cell supernatant using the Aphalisa technology (Perkin Elmer). Alphalisa is a sandwich assay using biotinylated antibody attached to streptavidin coated donorbeads and antibody conjugated to acceptor beads. In the presence of antigen, the beads come into close proximity. The excitation of the donor beads provokes the release of singlet oxygen molecules that trigger a cascade of energy transfer in the acceptor beads, resulting in light emission. To quantify the amount of Aβ42 in the cell supernatant, monoclonal antibody specific to the C-terminus of Aβ42 (JRF/cAβ42/26) was coupled to the receptor beads and biotinylated antibody specific to the N-terminus of Aβ (JRF/AβN/25) was used to react with the donor beads. To quantify the amount of Aβtotal in the cell supernatant, monoclonal antibody specific to the N-terminus of Aβ (JRF/AβN/25) was coupled to the receptor beads and biotinylated antibody specific to the mid region of Aβ (biotinylated 4G8) was used to react with the donor beads.
(§4) To obtain the values reported in Table 7c, the data were calculated as percentage of the maximum amount of amyloid Beta 42 measured in the absence of the test compound. The sigmoidal dose response curves were analyzed using non-linear regression analysis with percentage of the control plotted against the log concentration of the compound. A 4-parameter equation was used to determine the IC50.

Aβtotal [4] = assay: Method 2: Aβtotal Alphalisa in supernatant of SKNBE2 cells carrying APP 695-wild type (Table 7c); settings: Method 2, Alphalisa, overnight incubation
Description: as §1, §2, §3, §4

[5] = Table 7b, averaged IC50, non-linear regression of percentage of control vs log concentration, 4-parameter equation
[6] = Table 7a, SKNBE2 cells, compounds 18 h, XLfit 4-parameter fit of percent inhibition, top/bottom fixed to 100/0, hill slope 1

| Compound | IC50 (Aβ42 [1]; [5]) | IC50 (Aβtotal [2]; [5]) | IC50 (Aβ42 [3]) | IC50 (Aβtotal [4]) | IC50 (Aβ42 [1]; [6]) | IC50 (Aβtotal [2]; [6]) | IC50 (Aβ42 [3]; Homo sapiens) | IC50 (Aβtotal [4]; Homo sapiens) |
| --- | --- | --- | --- | --- | --- | --- | --- | --- |
| Cc1ncc(-c2ccc(Nc3cccc4c3nc(C(C)c3ccc(Cl)cc3)n4C)cn2)o1 (racemic) [Compound 87] | 251 nM | > 10000 nM | 288 nM | 9120 nM |  |  |  |  |
| Cc1ncc(-c2ccc(Nc3nccc4c3nc(-c3ccc(F)cc3)n4C(C)C)cc2)o1 [Compound 26] | 871 nM | > 30000 nM | 191 nM | > 10000 nM |  |  |  |  |
| Cc1ncoc1-c1ccc(Nc2cccc3c2nc(-c2ccc(F)cc2)n3C)cn1 [Compound 35] | 89 nM |  | 214 nM | > 10000 nM | 90 nM | > 3000 nM |  |  |
| Cc1ncc(-c2ccc(Nc3cccn4c(C)c(-c5ccccc5Cl)nc34)cc2)o1 [Compound 49] | 20 nM | > 3000 nM | 40 nM | > 10000 nM | 21 nM | > 3000 nM |  |  |
| Cc1ncc(-c2ccc(Nc3cccn4cc(-c5cc(C(F)(F)F)ccc5C)nc34)cc2)o1 [Compound 50] | 20 nM | > 3000 nM | 72 nM | > 10000 nM | 38 nM | > 3000 nM |  |  |
| Cc1ncoc1-c1ccc(Nc2cccc3c2nc(-c2ccc(F)cc2)n3C(C)C)cc1F [Compound 65] | 83 nM | > 3000 nM | 117 nM | > 10000 nM |  |  |  |  |
| Cc1ncc(-c2ccc(Nc3nccc4c3nc(CC3CC3)n4C)cc2F)o1 [Compound 66] | > 3000 nM |  | > 10000 nM | > 10000 nM |  |  |  |  |
| Cc1nc(C)c(-c2ccc(Nc3cc(F)cc4c3nc(-c3ccccc3Cl)n4C)cn2)o1 [Compound 79] | 28 nM | > 3000 nM | 76 nM | > 10000 nM |  |  |  |  |
| Cc1nc(C)c(-c2ccc(Nc3cccc4c3nc(-c3ccc(F)cc3)n4C(C)C)cn2)o1 [Compound 82] | 37 nM | > 3000 nM | 49 nM | > 10000 nM |  |  |  |  |
| Cc1ncc(-c2ccc(Nc3nccc4c3nc(-c3ccccc3Cl)n4C)cn2)o1 [Compound 85] | 66 nM | > 3000 nM | 363 nM | > 10000 nM |  |  |  |  |
| Cc1ncc(-c2ccc(Nc3cc(C#N)cc4c3nc(-c3ccc(F)cc3)n4C)cn2)o1 [Compound 86] | 19 nM | > 3000 nM | 52 nM | > 10000 nM |  |  |  |  |
| Cc1ncc(-c2ccc(Nc3cccc4c3nc(C3(c5ccc(Cl)cc5)CC3)n4C)cn2)o1 [Compound 88] | 66 nM | > 10000 nM | 58 nM | 8910 nM |  |  |  |  |
| COc1cc(Nc2cccc3c2nc(C2CCOCC2)n3C(C)C)ccc1-c1cnc(C)o1 [Compound 93] | 1860 nM |  | 2750 nM | > 10000 nM |  |  |  |  |
| Cc1ncc(-c2ccc(Nc3cc(F)cc4c3nc(-c3ccccc3Cl)n4C)cn2)o1 [Compound 107] | 18 nM | > 3000 nM | 25 nM | > 10000 nM |  |  |  |  |
| Cc1cc2c(nc(-c3cccc(Cl)c3)n2C)c(Nc2ccc(-c3ocnc3C)nc2)n1 [Compound 111] | 339 nM | > 10000 nM | 204 nM | > 10000 nM |  |  |  |  |
| COc1cc(Nc2nc(C)cc3c2nc(-c2ccc(F)cc2)n3C)ccc1-c1ocnc1C [Compound 125] | 33 nM |  | 195 nM | > 10000 nM |  |  |  |  |
| COc1cc(Nc2cc(C#N)cn3cc(C)nc23)ccc1-c1ocnc1C [Compound 145] | 166 nM |  | 1050 nM | 6310 nM |  |  |  |  |
| COc1cc(Nc2cc(Cl)cn3cc(C4CCOCC4)nc23)ccc1-c1ocnc1C [Compound 159] |  |  | 269 nM | > 10000 nM |  |  |  |  |
| COc1cc(Nc2cc(F)cn3cc(C4CCOCC4)nc23)ccc1-c1ocnc1C [Compound 163] | 245 nM | > 10000 nM | 158 nM | > 10000 nM |  |  |  |  |

| Compound | IC50 (Aβ42 [1]; [5]) | IC50 (Aβtotal [2]; [5]) | IC50 (Aβ42 [3]) | IC50 (Aβtotal [4]) | IC50 (Aβ42 [1]; [6]) | IC50 (Aβtotal [2]; [6]) | IC50 (Aβ42 [3]; Homo sapiens) | IC50 (Aβtotal [4]; Homo sapiens) |
| --- | --- | --- | --- | --- | --- | --- | --- | --- |
| Cc1ncoc1-c1ccc(Nc2cccn3cc(CC4CCOCC4)nc23)cn1 [Compound 164] | 1410 nM | 9330 nM | 1320 nM | 6760 nM |  |  |  |  |
| Cc1ncc(-c2ccc(Nc3cccn4c(C)c(-c5ccccc5C(F)(F)F)nc34)cn2)o1 [Compound 167] | 21 nM | > 3000 nM | 18 nM | > 10000 nM |  |  |  |  |
| COCc1c(-c2ccc(F)cc2)nc2c(Nc3ccc(-c4cnc(C)o4)c(OC)c3)cccn12 [Compound 168] |  |  | 51 nM | > 10000 nM |  |  |  |  |
| Cc1ncc(-c2ccc(Nc3cc(F)cn4cc(-c5ccc(F)cc5C)nc34)cn2)o1 [Compound 171] | 20 nM | > 3000 nM | 38 nM | > 10000 nM |  |  |  |  |
| Cc1cn2cccc(Nc3ccc(-c4cnc(C)o4)nc3)c2n1 [Compound 172] | 2090 nM | > 3000 nM | 661 nM | > 10000 nM |  |  |  |  |
| Cc1ncc(-c2ccc(Nc3cccn4c(C)c(-c5ccccc5Cl)nc34)cn2)o1 [Compound 173] | 9 nM | > 3000 nM | 7 nM | > 10000 nM |  |  |  |  |
| COCCc1c(-c2ccc(F)cc2)nc2c(Nc3ccc(-c4cnc(C)o4)c(OC)c3)cccn12 [Compound 174] | 10 nM | > 3000 nM | 22 nM | > 10000 nM |  |  |  |  |
| Cc1cc(-c2ccc(Nc3cccn4c(C)c(-c5ccccc5Cl)nc34)cc2F)ccn1 [Compound 182] |  |  | 162 nM | 7760 nM |  |  |  |  |
| Cc1cc(-c2ccc(Nc3cccn4c(C)c(-c5ccccc5Cl)nc34)cc2)ccn1 [Compound 183] |  |  | 83 nM | 8710 nM |  |  |  |  |
| Cc1ncc(-c2ccc(Nc3ccnc4c3nc(-c3ccc(F)cc3)n4C)cc2F)o1 [Compound 187] |  |  | 62 nM | > 10000 nM |  |  |  |  |
| Cc1ncc(-c2cnc(Nc3cccc4c3nc(-c3ccc(F)cc3)n4C)nc2)o1 [Compound 188] |  |  |  |  |  |  | > 10000 nM | > 10000 nM |
| COc1cc(Nc2cc(C#N)nc3c2nc(-c2ccc(F)cc2)n3C)ccc1-c1cnc(C)o1 [Compound 189] |  |  | 2400 nM | > 10000 nM |  |  |  |  |
| COc1cc(Nc2cc(C(C)C)nc3c2nc(-c2ccc(F)cc2)n3C)ccc1-c1cnc(C)o1 [Compound 190] | 5 nM | > 3000 nM | 10 nM | > 10000 nM |  |  |  |  |
| Cc1ncc(-c2ccc(Nc3cc(C(C)C)nc4c3nc(-c3ccc(F)cc3)n4C)cn2)o1 [Compound 191] |  |  | 12 nM | > 10000 nM |  |  |  |  |
| COc1nc(Nc2cccn3c(C)c(-c4ccccc4Cl)nc23)ccc1-c1ccnc(C)c1 [Compound 194] |  |  | 17 nM | ~6760 nM |  |  |  |  |
| Cc1ccc(F)cc1-c1cn2nccc(Nc3ccc(-c4ocnc4C)nc3)c2n1 [Compound 197] |  |  |  |  |  |  | 550 nM | > 10000 nM |
| Cc1ccc(F)cc1-c1cn2nc(Cl)cc(Nc3ccc(-c4ocnc4C)nc3)c2n1 [Compound 198] |  |  | 1180 nM | 6760 nM |  |  |  |  |
| COc1cc(Nc2cccn3c(C)c(-c4ccccc4Cl)nc23)ccc1-c1ccnc(C)c1 [Compound 201] |  |  | 45 nM | > 10000 nM |  |  |  |  |
| COc1cc(Nc2cc(C#N)cn3cc(CC(C)C)nc23)ccc1-c1ocnc1C [Compound 202] | 135 nM | > 3000 nM | 245 nM | 8510 nM |  |  |  |  |
